The values that follow come from ChEMBL document CHEMBL1150610, “Diterpenoids from Isodon adenantha” (J Nat Prod, 2002).

Broadly, the IC50 is the point on the concentration scale where inhibition reaches its midpoint. A low value points to inhibition by little substance.

Molecules are shown by their SMILES. Converted amounts (≈) assume the structure as drawn.

This assay concerns K562. The assay is described as follows: Cytotoxicity against human K562 cells. The class given is functional, cell-based.
On to `C=C1C(=O)[C@]23C[C@H]1C[C@H](OC(C)=O)[C@H]2[C@]1(C)[C@@H](OC(C)=O)C[C@H](O)C(C)(C)[C@H]1C[C@@H]3OC(C)=O` [ADENANTHIN C], for which the 50% inhibitory concentration (IC50) was 3.3 µg/mL (≈ 6.92 µM).
The result for `C=C1C(=O)[C@]23C[C@H]1C[C@H](O)[C@H]2[C@@]1(C)[C@H](C[C@@H]3OC(C)=O)C(C)(C)[C@@H](OC(C)=O)C[C@@H]1O` [ADENANTHIN F] reads 3.6 µg/mL (≈ 8.28 µM); that for `C=C1C(=O)[C@]23C[C@H]1C[C@H](OC(C)=O)[C@H]2[C@]1(C)[C@@H](OC(C)=O)C[C@H](O)C(C)(C)[C@H]1[C@@H](O)[C@@H]3OC(C)=O` [WEISIENSIN A], 3.3 µg/mL (≈ 6.7 µM).
